Reference: paper PMC12369479 (Journal of Experimental Botany, 2025)

Assays:
ZmADK2 = ZmADK2 (Zea mays, UniProt B4FFH8, T4S); experiment: Binding affinity by microscale thermophoresis (MST); conditions: MST, 50 mM HEPES pH 7.5, 1 mM MgCl2, first or only binding event, read-out: KD
Method: (§1) The microscale thermophoresis (MST) method was used to determine the binding affinity of various ribosides for ZmADK2 and PpADK1. Proteins were fluorescently labeled with RED-tris-NTA dye (www.nanotemper-technologies.com) using a 1:1 dye/protein molar ratio. The labeled protein was adjusted to 100–300 nM in 50 mM HEPES buffer pH 7.5, 1 mM MgCl2, and 0.2% Tween. Measurements were performed in premium capillaries on a Monolith NT.115 instrument at 30 °C with 5 s/30 s/5 s laser off/on/off times, respectively, with continuous sample fluorescence recording. Thermal stability was measured by nano-differential scanning fluorimetry on a Prometheus NT.48 instrument (www.nanotemper-technologies.com) in various buffers covering a pH (7.0–9.5) and temperature range (25–95 °C), with a heating rate of 1 °C min^–1, and using NT melting control software. Protein unfolding was measured by detecting the temperature-induced change in tryptophan fluorescence intensity at emission wavelengths of 330±5 nm and 350±5 nm. The melting temperature (Tm) was deduced from the maximum of the first derivative of the fluorescence ratios F350/F330.

WT ZmADK3 = WT ZmADK3 (Zea mays, UniProt A0A1D6E5Z5); experiment: Binding affinity by MST; conditions: read-out: KD ATP
five plant ADKs = experiment: Thermal stability by nanoDSF; design: species or system Zea mays, Physcomitrella patens; conditions: all isoforms, ATP complexes at 4 mM
Method: as §1
Supplementary Fig. S1. Thermal stability, molecular and kinetic properties of ZmADK2. (A)
Thermal stability of five plant ADKs measured by nanoDSF. The curves for apoforms (in 150 mM
HEPES pH 7.2, 100 mM NaCl, 10 mM MgCl2) and ATP complexes at 4 mM concentrations are shown. […]

PpADK1 = target: T1, PpADK1 (Physcomitrium patens, UniProt O49923); experiment: Binding affinity by microscale thermophoresis (MST); design: species or system Physcomitrella patens; conditions: 50 mM HEPES pH 7.5, 1 mM MgCl2, read-out: KD
T1 construct: made in house; host or cells: E. coli T7 Express Iq
Method: as §1

[1] = test system: plant ADKs from lupin and Arabidopsis; design: method as in Guranowski, 1979; Moffatt et al., 2000; conditions: ref Guranowski, 1979, Moffatt et al., 2000, read-out: Km for ATP; cited from earlier work
ZmADK3 D19A variant = ZmADK3 D19A variant (Zea mays, UniProt A0A1D6E5Z5, D19A); experiment: Binding affinity by MST; conditions: D19A; MST; read-out: KD ATP
Method: (§2) All ZmADK3 mutants were cloned by 30 cycle PCRs using tail-to-tail oriented phosphorylated primers, with the mutation being located at the 5′ end of one of the primers. The following mutants were cloned using the primers given in Supplementary Table S1: D19A, R132A, N222A, E225A, N295A, and D299A. The products were treated with DpnI restriction enzyme, gel purified, and ligated using T4 DNA ligase (www.thermofisher.com). Clones were transformed into T7 express I^qE. coli competent cells.
as §1

ZmADK3 E225A variant = ZmADK3 E225A variant (Zea mays, UniProt A0A1D6E5Z5, E225A); experiment: Binding affinity by MST
Method: as §2, §1

ZmADK3 N295A variant = ZmADK3 N295A variant (Zea mays, UniProt A0A1D6E5Z5, N295A); experiment: Binding affinity by MST; conditions: N295A; MST; read-out: KD ATP
Method: as §2, §1

ZmADK3 D299A variant = ZmADK3 D299A variant (Zea mays, UniProt A0A1D6E5Z5, D299A); experiment: Binding affinity by MST; conditions: D299A; MST; read-out: KD ATP
Method: as §2, §1

ZmADK3 R132A variant = ZmADK3 R132A variant (Zea mays, UniProt A0A1D6E5Z5, R132A); experiment: Binding affinity by MST; conditions: R132A; MST; read-out: KD ATP
Method: as §2, §1

ZmADK3 N222A variant = ZmADK3 N222A variant (Zea mays, UniProt A0A1D6E5Z5, N222A); experiment: Binding affinity by MST
Method: as §2, §1

Sequence of ZmADK3 E225A variant (A0A1D6E5Z5 entry or part of it E225A): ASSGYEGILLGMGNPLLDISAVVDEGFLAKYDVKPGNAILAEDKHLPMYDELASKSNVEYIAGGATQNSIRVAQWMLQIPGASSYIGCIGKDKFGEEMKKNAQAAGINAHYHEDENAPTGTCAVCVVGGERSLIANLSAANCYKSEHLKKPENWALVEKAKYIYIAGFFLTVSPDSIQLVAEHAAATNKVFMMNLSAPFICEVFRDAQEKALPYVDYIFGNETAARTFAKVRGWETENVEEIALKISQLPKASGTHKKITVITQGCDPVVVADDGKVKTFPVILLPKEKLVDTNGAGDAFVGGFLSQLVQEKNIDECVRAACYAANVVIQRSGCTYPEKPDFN
Sequence of ZmADK3 N222A variant (A0A1D6E5Z5 entry or part of it N222A): as the sequence (A0A1D6E5Z5 entry or part of it E225A) above, with N221A, A224E counted along it
Sequence of ZmADK3 N295A variant (A0A1D6E5Z5 entry or part of it N295A): as the sequence (A0A1D6E5Z5 entry or part of it E225A) above, with A224E, N294A counted along it
Sequence of ZmADK3 R132A variant (A0A1D6E5Z5 entry or part of it R132A): as the sequence (A0A1D6E5Z5 entry or part of it E225A) above, with R131A, A224E counted along it
Sequence of WT ZmADK3 (A0A1D6E5Z5 2-344): as the sequence (A0A1D6E5Z5 entry or part of it E225A) above, with A224E counted along it
T1 sequence (O49923 whole entry): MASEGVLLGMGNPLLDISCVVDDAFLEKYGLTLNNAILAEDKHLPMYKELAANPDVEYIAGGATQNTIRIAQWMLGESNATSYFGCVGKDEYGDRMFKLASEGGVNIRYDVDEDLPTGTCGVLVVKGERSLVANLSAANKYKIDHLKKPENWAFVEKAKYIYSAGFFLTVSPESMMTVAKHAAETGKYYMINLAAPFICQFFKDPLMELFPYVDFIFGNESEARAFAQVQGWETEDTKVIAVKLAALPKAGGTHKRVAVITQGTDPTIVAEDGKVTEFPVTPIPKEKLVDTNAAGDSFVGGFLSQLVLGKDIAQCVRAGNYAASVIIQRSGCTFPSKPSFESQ
Sequence of ZmADK2 (B4FFH8 1-342 T4S): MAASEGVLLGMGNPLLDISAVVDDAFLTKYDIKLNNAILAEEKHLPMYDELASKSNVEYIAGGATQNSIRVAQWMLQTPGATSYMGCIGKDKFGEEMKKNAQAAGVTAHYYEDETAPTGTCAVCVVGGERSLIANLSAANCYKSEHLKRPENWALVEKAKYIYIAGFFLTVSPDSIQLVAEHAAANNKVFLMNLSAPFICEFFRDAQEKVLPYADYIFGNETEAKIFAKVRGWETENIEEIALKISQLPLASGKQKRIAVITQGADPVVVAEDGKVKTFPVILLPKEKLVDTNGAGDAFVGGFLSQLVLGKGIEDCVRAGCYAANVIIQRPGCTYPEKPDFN
Sequence of ZmADK3 D299A variant (A0A1D6E5Z5 entry or part of it D299A): as the sequence (A0A1D6E5Z5 entry or part of it E225A) above, with A224E, D298A counted along it
Sequence of ZmADK3 D19A variant (A0A1D6E5Z5 entry or part of it D19A): as the sequence (A0A1D6E5Z5 entry or part of it E225A) above, with D18A, A224E counted along it

With `Nc1ncnc2c1ncn2[C@@H]1O[C@H](COP(=O)(O)OP(=O)(O)OP(=O)(O)O)[C@@H](O)[C@H]1O` [ATP] as the compound, how does the Kd (ZmADK2) read?
Its Kd is 2.2 ± 0.62 mM.

What about the Kd (WT ZmADK3) of the same compound?
The Kd was 2.9 ± 1.1 mM.

What about the “stabilizing effect on melting temperature (Tm)” value (five plant ADKs) of the same compound?
The value was “up to 4 °C”.

What about the Kd (PpADK1) of the same compound?
The Kd was 2.9 ± 0.7 mM.

And the Km [1]?
The Km was 300 to 400 µM.

What about the Kd (ZmADK3 D19A variant) of the same compound?
Its Kd is 4.9 ± 1.5 mM.

What about the “lower affinity for ATP compared with the WT” value (ZmADK3 E225A variant; E225A variant of ZmADK3) of the same compound?
The value was ~ 6 fold.

And the Kd (ZmADK3 E225A variant; E225A, MST, read-out: KD ATP)?
The Kd was 16 ± 4.5 mM.

And the Kd (ZmADK3 N295A variant)?
Its Kd is 41.8 ± 10 mM.

And the Kd (ZmADK3 D299A variant)?
The Kd was 9.1 ± 2.1 mM.

And the Kd (ZmADK3 R132A variant)?
Its Kd is 8.5 ± 2.1 mM.

What about the “lower affinity for ATP compared with the WT” value (ZmADK3 N222A variant; N222A variant of ZmADK3) of the same compound?
Its value is 7 fold.

And the Kd (ZmADK3 N222A variant; N222A, MST, read-out: KD ATP)?
Its Kd is 20.7 ± 4.4 mM.
